In patent US20240350430A1, “GROWTH INHIBITOR OF METASTATIC HUMAN PROSTATE CANCER CELLS” (Watanabe Oyster Laboratory Co., Ltd., priority 2021, published 2024):

Assays:
PC-3 cells = experiment: Cell growth of PC-3 cells (cell counting); format: cell-based, human
Protocol: (§1) The PC-3 and DU-145 cells (the cell number of 1×10^5/in 1 ml of a culture fluid per hole using a 24-hole plate) were cultured in a DMEM culture fluid (containing 10% of FBS, 1% of P/S, and 1% of fungizone) containing the DHMBA (1 and 10 μM) under 5% of CO2, at 37° C., for one, two, three, four, and six days. […] After the culture, 0.1 ml of 0.05% trypsin-EDTA solution obtained by dissolving the cells adhering to the bottom surface of the culture dish in PBS (Thermo Fisher Scientific, Waltham, MA, USA) not containing Ca^2+/Mg^2+ was added, incubation was performed at 37° C. for two minutes to release the adhering cells, and 0.9 ml of the DMEM culture fluid containing 10% of FBS and 1% of P/S was added to stop the reaction. The cell number in the cell suspension was counted by the method described in the item of “Measurement of Cell Number.”
(§2) After the culture of the cells, 0.1 ml of 0.05% trypsin-EDTA solution obtained by dissolving the cells adhering to the bottom surface of the culture dish in PBS (Thermo Fisher Scientific, Waltham, MA, USA) not containing Ca^2+/Mg^2+ was added, incubation was performed at 37° C. for two minutes to release the adhering cells, and 0.9 ml of the DMEM culture fluid containing 10% of FBS and 1% of P/S was added to stop the reaction. The visible cells were counted by the Olympus MTV-3 microscope using a hemocytometer (Sigma-Aldrich).
FIG. 1(C) is a diagram in which the PC-3 cells (1×10^5 cells/per well of a 24-well plate) were cultured under 5% of CO2, at 37° C., for one to six days in a DMEM culture fluid (containing 10% of FBS, 1% of P/S, and 1% of fungizone) containing the DHMBA (10 μM).
In FIGS. 1(D) and 1(E), the PC-3 cells (1×10^5 cells/per well of a 24-well plate) were cultured under 5% of CO2, at 37° C., for three (FIG. 1D) and six (FIG. 1E) days in a DMEM culture fluid (containing 10% of FBS, 1% of P/S, and 1% of fungizone) containing the DHMBA (0.01, 0.1, 1, 10, 100, and 1000 μM). After the culture, the cells adhered to the bottom surface of the dish were removed and counted. […] 1-way ANOVA, Tukey-Kramer post-test.
FIGS. 3(A) and 3(B) are diagrams in which the PC-3 cells (1×10^5 cells/ml/per well of a 24-well plate) were cultured under 5% of CO2, at 37° C., for three days in a DMEM culture fluid (containing 10% of FBS, 1% of P/S, and 1% of fungizone) containing the DHMBA (10 μM) containing cell cycle inhibitors, roscovitine (10 and 100 nM), butyrate (10 and 100 μM), and sulforaphane (1 and 10 nM).
After the culture, the cells adhered to the dish were removed and counted. […] 1-way ANOVA, Tukey-Kramer post-test.
In the drawing, the PC-3 cells (1×10^5/in 1 ml of a culture fluid per hole using a 24-hole plate) were cultured under 5% of CO2, at 37° C., for three days in a DMEM culture fluid (containing 10% of FBS, 1% of P/S, and 1% of fungizone) in the presence of the DHMBA (10 μM) and an aryl hydrocarbon receptor inhibitor CH223191 (1, 10, or 25 μM) to examine the action on cell growth.

DU-145 cells = experiment: Cell growth of DU-145 cells (cell counting); format: cell-based, human; settings: DHMBA 10 μM, one to six days
Protocol: as §1, §2
FIG. 2(C) is a diagram in which the DU-145 cells (1×10^5 cells/per well of a 24-well plate) were cultured under 5% of CO2, at 37° C., for one to six days in a DMEM culture fluid (containing 10% of FBS, 1% of P/S, and 1% of fungizone) containing the DHMBA (10 μM).
In FIGS. 2(D) and 2(E), the DU-145 cells (1×10^5 cells/per well of a 24-well plate) were cultured under 5% of CO2, at 37° C., for three (FIG. 2D) and six (FIG. 2E) days in a DMEM culture fluid (containing 10% of FBS, 1% of P/S, and 1% of fungizone) containing the DHMBA (0.01, 0.1, 1, 10, 100, and 1000 μM). After the culture, the cells adhered to the dish were removed and counted. […] 1-way ANOVA, Tukey-Kramer post-test.

COc1c(O)cc(CO)cc1O [DHMBA, 3,5-dihydroxy-4-methoxybenzyl alcohol] was tested, and the “effect on cell growth at low concentration” value (PC-3 cells; DHMBA 0.01 μM) was “significant effect”, the “cell growth inhibitory effect of DHMBA in the presence of CH223191” value (PC-3 cells; DHMBA 10 μM with CH223191 1, 10, or 25 μM, three days) was “found not to be expressed” and the “cell growth inhibitory effect of DHMBA in the presence of cell cycle inhibitors” value (PC-3 cells; DHMBA 10 μM with roscovitine, butyrate or sulforaphane, three days) was “not observed”. The “cell growth inhibitory effect of DHMBA in the presence of signaling inhibitors” value (PC-3 cells; DHMBA 10 μM with wortmannin, PD98059 or staurosporine, three days) was “no significant cell growth inhibitory effect”, the cell growth (PC-3 cells; DHMBA 10 μM, one to six days) was “inhibited” and the cell growth (DU-145 cells) was “inhibited”.
